Reference: patent publication US20240358659A1, “Uses of Propranolol for Managing Viral Infections” (Emory University, priority 2021, published 2024)

What was measured:
[1] = test system: SARS-CoV-2; settings: incubation of SARS-CoV-2 with compound for 1 hr at 37° C., plaque assay
[2] = test system: SARS-CoV-2; test: viral load reduction assay in Vero E6 cells (RT-qPCR of released genome copies); format: cell-based
[3] = test system: SARS-CoV-2; test: viral load reduction assay in human lung epithelial (Calu) cells (RT-qPCR of released genome copies); format: cell-based; settings: MOI 1, 150 uM, 16 h pi
[4] = test system: SARS-CoV-2; test: time of addition assay in Vero cells, plaque assay; format: cell-based; settings: infectious particles by plaque assay at 16 h pi

With CC(C)NC[C@@H](O)COc1cccc2ccccc12 [R-propranolol, (R)-(+)-1-(isopropylamino)-3-(naphthalen-1-yloxy)propan-2-ol] the “reduction of infectivity of virus particles (virucidal activity)” value [1] was “does not reduce infectivity of virus particles”, the “efficacy in viral load reduction compared with remdesivir” value ([2]; 25 uM) was “approximately the same efficacy as remdesivir” and the “reduction in extracellular SARS-CoV-2 genome copies” value ([2]; MOI 1, 50 uM, 16 h post-infection) was about 2.5 log. The “reduction in extracellular SARS-CoV-2 genome copies” value [3] was “about 1.5 log” and the “reduction of viral load by time of addition” value [4] was “highest reduction of viral load upon pre-treatment”.
